# Assay results as given in patent US9440960B2, “Substituted oxetanes and their use as inhibitors of cathepsin C” (Boehringer Ingelheim International GmbH, priority 2014, dated 2016).
# Molecular target: T1, recombinant human DPPI (Cathepsin C) (Homo sapiens, UniProt P53634)
# T1 construct: purchased Prozymex
# Assay: Inhibition of Human DPPI (Cathepsin C)
# Format: biochemical
# Conditions: substrate Gly-Arg-AMC 50 μM, MES buffer pH 6.0, 30 min at room temperature, fluorescence readout
# Source text: Inhibition of Human DPPI (Cathepsin C)
# Materials: Microtiterplates (Optiplate-384 F) were purchased from PerkinElmer (Prod.No. 10 6007270). The substrate Gly-Arg-AMC was from Biotrend (Prod.-No. 808756 Custom peptide).
# Bovine serum albumin (BSA; Prod.No. A3059) and Dithiothreitol (DTT; Prod.No D0632) were from Sigma. TagZyme buffer was from Riedel-de-Haen (Prod.-No. 04269), NaCl was from Merck (Prod.-No. 1.06404.1000) and morpholinoethane sulfonic acid (MES), was from Serva (Prod.-No.
# 29834). The DPP1 inhibitor Gly-Phe-DMK was purchased from MP Biomedicals 15 (Prod.-No. 03DK00625). The recombinant human DPPI was purchased from Prozymex. All other materials were of highest grade commercially available.
# The following buffers were used: MES buffer: 25 mM MES, 50 mM NaCl, 5 mM DTT, adjusted to pH 6.0, containing 0.1% BSA; TAGZyme Buffer: 20 mM NaH2PO4, 150 mM NaCl adjusted to pH […]
# Assay conditions: The recombinant human DPPI was diluted in TAGZyme buffer to 1 U/ml (38.1 μg/ml, respectively), and then activated by mixing in a 1:2 ratio with a Cysteamine aqueous solution (2 mM) and incubating for 5 min at room temperature.
# Five uL test compound (final concentration 0.1 nM to 100 μM) in aqua bidest 5 (containing 4% DMSO, final DMSO concentration 1%) were mixed with 10 μL of DPPI in MES buffer (final concentration 0.0125 ng/μL) and incubated for 10 min. Then, 5 μL of substrate in MES buffer (final concentration 50 μM) were added. The microtiter plates were then incubated at room temperature for 30 min. Then, the reaction was stopped by adding 10 μL of Gly-Phe-DMK in 10 MES-buffer (final concentration 1 μM). The fluorescence in the wells was determined using a Molecular Devices SpectraMax M5 Fluorescence Reader (Ex 360 nm, Em 460 nm) or an Envision Fluorescence Reader (Ex 355 nm, Em 460 nm).
# Each assay microtiter plate contained wells with vehicle controls (1% DMSO in bidest+0.075% 15 BSA) as reference for non-inhibited enzyme activity (100% Ctl; high values) and wells with inhibitor (Gly-Phe-DMK, in bidest+1% DMSO+0.075% BSA, final concentration 1 μM) as controls for background fluorescence (0% Ctl; low values).
# The analysis of the data was performed by calculating the percentage of fluorescence in the presence of test compound in comparison to the fluorescence of the vehicle control after 20 subtracting the background fluorescence using the following formula: (RFU(sample)−RFU(background))*100/(RFU(control)−RFU(background)) […]
# Data from these calculations were used to generate IC50 values for inhibition of DPPI, respectively.
# T1 sequence (P53634 231-394 limits assumed): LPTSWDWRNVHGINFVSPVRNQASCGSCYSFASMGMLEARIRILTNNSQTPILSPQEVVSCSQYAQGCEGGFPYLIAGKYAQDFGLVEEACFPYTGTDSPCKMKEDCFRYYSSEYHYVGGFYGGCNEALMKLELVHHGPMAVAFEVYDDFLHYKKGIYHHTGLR
# T1 sequence (P53634 395-463 limits assumed): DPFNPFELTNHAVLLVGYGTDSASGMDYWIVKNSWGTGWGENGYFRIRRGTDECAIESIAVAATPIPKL
# T1 sequence (P53634 25-143 limits assumed): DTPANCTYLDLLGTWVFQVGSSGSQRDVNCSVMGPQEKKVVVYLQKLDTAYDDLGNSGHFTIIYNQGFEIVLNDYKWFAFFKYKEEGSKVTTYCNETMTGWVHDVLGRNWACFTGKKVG
row,Structure (SMILES),IC50
1,N#C[C@H](Cc1ccc(N2CCC3C2CCN3C2COC2)cc1F)NC(=O)[C@H]1N[C@@H]2CC[C@H]1C2 (stereo partly drawn) [Example 8],35.5 nM
2,N#C[C@H](Cc1ccc(C2CC3CN(C4COC4)CC3C2)cc1F)NC(=O)[C@H]1N[C@@H]2CC[C@H]1C2 (stereo partly drawn) [Example 13],79.7 nM
3,N#C[C@H](Cc1ccc(N2CCC3C2CCN3C2COC2)cc1F)NC(=O)[C@H]1N[C@@H]2CC[C@H]1C2 (stereo partly drawn) [Example 9],17.6 nM
4,"N#C[C@H](Cc1ccc(C2=CCN(C3COC3)CC2)cc1F)NC(=O)[C@H]1N[C@@H]2CC[C@H]1C2 [Example 4, (1S,2S,4R)—N-[(1S)-1-cyano-2-[2-fluoro-4-[1-(oxetan-3-yl)-3,6-dihydro-2H-pyridin-4-yl]phenyl]ethyl]-3-azabicyclo[2.2.1]heptane-2-carboxamide]",5.6 nM
5,N#C[C@H](Cc1ccc(N2CC3(C2)CN(C2COC2)C3)cc1F)NC(=O)[C@H]1N[C@@H]2CC[C@H]1C2 [Example 3],21.6 nM
6,"N#C[C@H](Cc1ccc(N2CCN(C3COC3)CC2)cc1F)NC(=O)[C@H]1N[C@@H]2CC[C@H]1C2 [Example 1, (1S,2S,4R)—N-[(1S)-1-cyano-2-[2-fluoro-4-[4-(oxetan-3-yl)piperazin-1-yl]phenyl]ethyl]-3-azabicyclo[2.2.1]heptane-2-carboxamide]",11.7 nM
7,N#C[C@H](Cc1ccc(N2C3CCC2CN(C2COC2)C3)cc1F)NC(=O)[C@H]1N[C@@H]2CC[C@H]1C2 [Example 2],14.4 nM
8,N#C[C@H](Cc1ccc(C2CC3CN(C4COC4)CC3C2)cc1F)NC(=O)[C@H]1N[C@@H]2CC[C@H]1C2 (stereo partly drawn) [Example 14],29.3 nM
9,"N#C[C@H](Cc1ccc(N2CCN(C3COC3)CC2)cc1F)NC(=O)C12CCC(CC1)CN2 [Example 15, N-[(1S)-1-cyano-2-[2-fluoro-4-[4-(oxetan-3-yl)piperazin-1-yl]phenyl]ethyl]-2-azabicyclo[2.2.2]octane-1-carboxamide]",66.5 nM
10,N#C[C@H](Cc1ccc(N2CC3CCN(C4COC4)C3C2)cc1F)NC(=O)[C@H]1N[C@@H]2CC[C@H]1C2 (stereo partly drawn) [Example 6],13.5 nM
11,N#C[C@H](Cc1ccc(C2CCN(C3COC3)C2)cc1F)NC(=O)[C@H]1N[C@@H]2CC[C@H]1C2 (stereo partly drawn) [Example 12],29.4 nM
12,N#C[C@H](Cc1ccc(N2CCC3CN(C4COC4)CC32)cc1F)NC(=O)[C@H]1N[C@@H]2CC[C@H]1C2 (stereo partly drawn) [Example 7],9.9 nM
13,"N#C[C@H](Cc1ccc(C2CCN(C3COC3)CC2)cc1F)NC(=O)[C@H]1N[C@@H]2CC[C@H]1C2 [Example 10, (1S,2S,4R)—N-[(1S)-1-cyano-2-[2-fluoro-4-[1-(oxetan-3-yl)-4-piperidyl]phenyl]ethyl]-3-azabicyclo[2.2.1]heptane-2-carboxamide]",60.1 nM
14,"N#C[C@H](Cc1ccc(N2CC3CN(C4COC4)CC3C2)cc1F)NC(=O)[C@H]1N[C@@H]2CC[C@H]1C2 (stereo partly drawn) [Example 5, (1S,2S,4R)—N-[(1S)-1-cyano-2-[2-fluoro-4-[5-(oxetan-3-yl)-1,3,3a,4,6,6a-hexahydropyrrolo[3,4-c]pyrrol-2-yl]phenyl]ethyl]-3-azabicyclo[2.2.1]heptane-2-carboxamide]",16.5 nM
15,N#C[C@H](Cc1ccc(C2CCCN(C3COC3)C2)cc1F)NC(=O)[C@H]1N[C@@H]2CC[C@H]1C2 (stereo partly drawn) [Example 11],52.7 nM
